In patent US6815577B1, “Method of hybrid seed production using conditional female sterility” (Syngenta Participations AG, priority 1997, dated 2004):

How the values were obtained:
[1] = test system: conditional male sterile plants (transformed with pGK73); experiment: Acetyl-PPT treatment of conditional male sterile tobacco plants; format: in vivo; conditions: T1 tobacco, pGK73 (TA29-argE), treated during the growing stages; untreated plants remain fully fertile
Source text: Tobacco leaf discs are also transformed with pGK73, containing an expression cassette of the argE gene under the control of the TA29 promoter (Kriete et al., Plant J. 9:809-818 (1996)) as described in Horsch et al., Science 227:1229-1231 (1985). The presence of the integrated transgenes are confirmed by PCR. Northern analysis of RNA made from anthers is used to confirm tissue-specific expression of the argE gene in the transgenic plants. These plants are self-fertile and have the phenotype of conditional male sterility. Seed of the T1 generation is collected after self-pollination.
Seed of the T1 generation from both conditional female sterile plants (transformed with pFA100) and conditional male sterile plants (transformed with pGK73) are planted in soil. Once plantlets have grown to a sufficient size, leaf tissue is analyzed by PCR for the presence of the argE transgene. PCR positive plants are transferred to the greenhouse. These plants are fully fertile in the absence of exogenously-applied protoxin. A subset of the conditional female sterile plants and a subset of the conditional male sterile plants are treated with the protoxin acetyl-PPT during the growing stages. […] The untreated plants remain fully fertile. Pollen from the treated female sterile plants is collected and used to pollinate the pistils of treated male sterile plants, which are the female parent plants. […]

[2] = test system: plants transformed with pMA200 or pSH68 or pZmgarg; experiment: Acetyl-PPT treatment of plants conferring conditional male sterility; format: in vivo; conditions: T1 plants with pMA200 or pSH68 or pZmgarg, treated during the growing stages; untreated plants fully fertile
Procedure: (§1) Seed from the T1 generation from plants transformed with pFA200 or pSH74 or p19arg (conferring conditional female sterility) and plants transformed with pMA200 or pSH68 or pZmgarg (conferring conditional male sterility) are planted in soil. Once plantlets have grown to a sufficient size, leaf tissue is analyzed by PCR for the presence of the argE transgene. PCR positive plants are transferred to the greenhouse. These plants are fully fertile. A subset of the plants containing pFA200 or pSH74 or p19arg and a subset containing pMA200 or pSH68 or pZmarg are treated with the protoxin acetyl-PPT during the growing stages. […] The untreated plants transformed with pFA200 or pSH74 or p19arg and pMA200 or pSH68 or pZmgarg are fully fertile.

[3] = test system: conditional female sterile plants (transformed with pFA100); experiment: Acetyl-PPT treatment of conditional female sterile tobacco plants; format: in vivo; conditions: T1 tobacco, pFA100 (Stig1-argE), treated during the growing stages; untreated plants remain fully fertile
Source text: Plasmid pFA100 is constructed in a manner similar to pSH58, above, except that the argE gene (SEQ ID NO:3) replaces the GUS gene in Stig1-GUS (Goldman et al., EMBO J. 13:2976-2984 (1994)) in the correct translational reading frame using appropriate restriction enzymes. The STIG1-argE fusion is then ligated into a vector such as pCIB200 containing T-DNA borders, 3′ termination sequences and a functional plant selectable marker such as kanamycin resistance. The Stig1 promoter is a female-preferential promoter.
Tobacco leaf discs are transformed as described in Horsch et al., Science 227:1229-1231 (1985) with pSH58. The presence of the integrated transgenes is confirmed by PCR. Northern analysis of RNA made from female tissue is used to confirm tissue-specific expression of the argE gene in the transgenic plants. These plants are self-fertile and have the phenotype of conditional female sterility. T1 seed is collected after self-pollination. The female conditional transgene in pFA100 is also introduced into tobacco using similar procedures.
Seed of the T1 generation from both conditional female sterile plants (transformed with pFA100) and conditional male sterile plants (transformed with pGK73) are planted in soil. Once plantlets have grown to a sufficient size, leaf tissue is analyzed by PCR for the presence of the argE transgene. PCR positive plants are transferred to the greenhouse. […]

[4] = test system: plants transformed with pFA200 or pSH74 or p19arg; experiment: Acetyl-PPT treatment of plants conferring conditional female sterility; format: in vivo; conditions: T1 plants with pFA200 or pSH74 or p19arg, treated during the growing stages; untreated plants fully fertile
Procedure: as §1

[5] = test system: transgenic plants expressing bacterial cytochrome P450 gene in tapetal cells; conditions: WO 91/03561; O'Keefe et al. 1994; cited from earlier work
[6] = test system: transgenic plants expressing phosphonate monoester hydrolase gene in tapetal cells; conditions: Dotson et al. 1996; cited from earlier work
[7] = test system: transgenic plants expressing N-acetyl-L-ornithine deacetylase gene in tapetal cells; conditions: Kriete et al. 1996; EP 531,716; cited from earlier work

With `CC(=O)NC(CCP(C)(=O)O)C(=O)O` (stereo not shown) [acetyl-PPT, N-acetyl phosphinothricin] the “fertility of treated conditional male sterile plants” value [1] was “become male sterile”, the “fertility of treated plants (male reproductive structures)” value [2] was “are male sterile” and the “fertility of treated conditional female sterile plants” value [3] was “become female sterile”. The “fertility of treated plants (female reproductive structures)” value [4] was “are female sterile”.
In the case of `COc1cc(OC)nc(NC(=O)NS(=O)(=O)c2cccc3c2S(=O)(=O)N(C(C)C)C3)n1` [R7402, 2-methylethyl-2,2-dihydro-N-[(4,6-dimethoxypyrimidin-2-yl)aminocarbonyl]-1,2-benzoiaothiazole-7-sulfonamide-1,1-dioxide], the “male fertility after protoxin treatment” value [5] is listed as “rendered male sterile”.
For `O=C(O)CNCP(=O)(O)OCC(O)CO` (stereo not shown) [glycerol glyphosate, glyceryl glyphosate], the “male fertility after protoxin treatment” value [6] is given as “rendered male sterile”.
For `CC(=O)N[C@@H](CCP(C)(=O)O)C(=O)O` [N-acetyl-L-phosphinothricin], the “male fertility after protoxin treatment” value [7] is listed as “rendered male sterile”.
